{"source": "patent US20260240770A1", "about": "“LIQUID FORMULATION COMPRISING TRILOSTANE” (NORBROOK LABORATORIES LIMITED, priority 2023, published 2026)", "origin": "cited, not measured here", "details": "low water solubility and high membrane permeability", "data": [{"smiles": "C[C@]12CC[C@H]3[C@@H](CC[C@@]45O[C@@H]4C(O)=C(C#N)C[C@]35C)[C@@H]1CC[C@@H]2O", "note": "[Trilostane, 4α,5-epoxy-3,17β-dihydroxy-5α-androst-2-ene-2-carbonitrile]", "values": [{"measurement": "BCS class", "value": "Class Two"}]}]}
